Laboratory results from PMC12192727, “Strategies to Develop Na,K-ATPase-α4 Inhibitors as Male Contraceptives” (International Journal of Molecular Sciences, 2025).
pIC50: −log10 of the molar value. Entries after “also recorded” stand apart in the source; their conditions may differ. Read-outs that look alike come from different tables or passages of the source.

What was measured:
NKAα4 = molecular target: T1, NKAα4 (Rattus norvegicus, UniProt Q64541); assay: Na,K-ATPase activity assay, α4β1 expressed in Sf9 insect cells; type: biochemical
T1 construct: made in house; host or cells: Sf9 insect cells (baculovirus infection), cell homogenates
T1 sequence (Q64541 whole entry, other chains not shown): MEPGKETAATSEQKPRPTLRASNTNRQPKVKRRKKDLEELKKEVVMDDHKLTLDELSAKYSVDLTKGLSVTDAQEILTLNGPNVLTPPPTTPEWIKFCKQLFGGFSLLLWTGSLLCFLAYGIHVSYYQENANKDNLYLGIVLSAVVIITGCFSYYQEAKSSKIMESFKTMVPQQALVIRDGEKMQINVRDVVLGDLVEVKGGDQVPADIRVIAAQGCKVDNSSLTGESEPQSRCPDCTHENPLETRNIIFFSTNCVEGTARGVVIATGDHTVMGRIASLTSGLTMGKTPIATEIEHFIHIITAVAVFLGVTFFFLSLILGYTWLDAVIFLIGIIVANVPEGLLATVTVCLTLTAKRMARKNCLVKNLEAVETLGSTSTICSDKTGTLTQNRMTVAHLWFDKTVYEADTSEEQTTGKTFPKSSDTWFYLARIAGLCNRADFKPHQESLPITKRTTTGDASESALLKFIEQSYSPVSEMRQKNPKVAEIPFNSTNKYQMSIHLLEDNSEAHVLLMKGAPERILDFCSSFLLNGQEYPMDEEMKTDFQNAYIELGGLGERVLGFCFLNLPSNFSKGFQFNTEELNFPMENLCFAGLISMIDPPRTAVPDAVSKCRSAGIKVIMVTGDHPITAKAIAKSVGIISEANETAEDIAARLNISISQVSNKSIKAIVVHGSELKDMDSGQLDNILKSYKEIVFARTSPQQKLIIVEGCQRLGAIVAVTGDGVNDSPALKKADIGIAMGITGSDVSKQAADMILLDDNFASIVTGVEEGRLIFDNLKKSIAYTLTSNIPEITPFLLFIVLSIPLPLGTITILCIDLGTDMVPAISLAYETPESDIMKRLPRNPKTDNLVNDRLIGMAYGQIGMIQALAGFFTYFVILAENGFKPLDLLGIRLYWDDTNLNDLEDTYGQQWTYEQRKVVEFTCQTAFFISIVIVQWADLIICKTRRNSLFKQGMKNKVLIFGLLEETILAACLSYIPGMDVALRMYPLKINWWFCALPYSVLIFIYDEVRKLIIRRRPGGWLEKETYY
Description: (§1) The NKA α1 and α4 isoforms were expressed in Sf9 insect cells as previously described. Briefly, cells were cultured in suspension at 27 °C in Grace’s medium (JRH Biosciences, Lenexa, KS, USA) with 3.3 g/L of lactalbumin hydrolysate and 3.3 g/L of yeastolate and supplemented with 10% (v/v) fetal bovine serum, 100 units/mL of penicillin, 100 μg/mL of streptomycin, and 0.25 μg/mL of fungizone. For infections, cells were placed on 150 mm Petri dishes and infected with baculoviruses coding for the NKA α1β1 and α4β1 isozymes. Three days after infection, cells were scraped from the culture plates, centrifuged at 1500× g for 10 min, and washed twice in 10 mM imidazole hydrochloride (pH 7.5) and 1 mM EGTA (suspension buffer). Cells were then placed in a suspension buffer plus the addition of 0.32 M sucrose and stored at −20 °C or directly used for assays.
The Na,K-ATPase activity of insect cell homogenates was determined by measuring the initial rate of release of ^32Pi from γ[^32P]-ATP as described. The incubation medium (0.25 mL final volume) contained 120 mM NaCl, 30 mM KCl, 3 mM MgCl2, 0.2 mM EGTA, 30 mM Tris-HCl (pH 7.4), and different concentrations of the corresponding compounds. The assay was started by the addition of ATP with 0.2 μCi γ[^32P]-ATP (2 mM final concentration). After 30 min of incubation at 37 °C, the reaction was stopped with trichloroacetic acid, and 5% ammonium molybdate in 4 N H2SO4 was used to complex the ^32Pi released in the Na,K-ATPase reaction. The phosphomolybdate was extracted with isobutanol as described, and 170 μL of the organic phase was taken and subjected to liquid scintillation counting. Enzymatic activity was determined as the difference in ATP hydrolysis in the absence and presence of 1 mM ouabain.
Figure 6 Selectivity of 13 and 45 on NKAα4 over the NKAα1 isoform. […] The hydrolysis of ATP in the presence of saturating concentrations of Na^+, K^+, and Mg^2+ was measured using γ[^32P]-ATP. The curves represent the best fit of the experimental data to a single population of binding sites. Each value is the mean ± SEM of three independent experiments.

NKAα1 = molecular target: T2, NKAα1 (Rattus norvegicus, UniProt P06685); assay: Na,K-ATPase activity assay, α1β1 expressed in Sf9 insect cells; type: biochemical; details: read-out: NKA Isoform Specificity (IC50 M) NKAα1
T2 construct: made in house; host or cells: Sf9 insect cells (baculovirus infection), cell homogenates
Description: as §1
The Na,K-ATPase activity of insect cell homogenates was determined by measuring the initial rate of release of ^32Pi from γ[^32P]-ATP as described. […] Enzymatic activity was determined as the difference in ATP hydrolysis in the absence and presence of 1 mM ouabain.
Figure 6 Selectivity of 13 and 45 on NKAα4 over the NKAα1 isoform. […] The hydrolysis of ATP in the presence of saturating concentrations of Na^+, K^+, and Mg^2+ was measured using γ[^32P]-ATP. […]

mouse sperm = assay: Sperm viability (Live/Dead assay); type: cell-based; details: 10 µM, one hour
Description: To assess whether 13 and 45 affected sperm viability, we treated mouse sperm with the compounds for one hour at 10 µM and determined the number of live and dead cells in the sample.
Figure 5 Cell viability after treatment with compounds 13 and 45. Mouse caudal epididymal sperm was subjected to a medium not supporting capacitation to 10 µM of 13 and 45. After one hour, sperm was subjected to the Live/Dead assay as per the manufacturer’s recommendations. Cells were counted as viable/non-viable and expressed as the mean ± SEM of three determinations.

mouse epididymal sperm = assay: Reversibility of effect on sperm motility after washing; type: cell-based; details: after washing the cells with fresh medium
Description: An important goal for the development of agents to be used for contraception is to assess the reversibility of their effect on sperm. To achieve this, we treated mouse sperm in the absence and presence of either 13 or 45 and measured epididymal sperm motility before and after washing the cells with fresh medium.
Mouse epididymal sperm were treated in the absence or presence of compounds 13 or 45 for one hour in Whitten’s medium. After an initial measurement of sperm motility using CASA, the sperm was washed by centrifugating the sample at 300× g for 3 min and resuspension in fresh Whitten’s medium. Then, sperm motility was determined again using CASA for the different times and for up to 180 min.
Figure 7 Reversibility of the effect of compounds 13 and 45. Mouse epididymal sperm were treated in the absence (untreated control) or presence of 13 (A) or 45 (B) for one hour. Then, the sperm was washed, and motility was measured before and after washing the cells using CASA. Sperm movement was followed during the indicated times. Values are expressed as the mean ± SEM of three determinations. Samples treated with 13 and 45 were statistically different from the untreated controls, with p < 0.05.

[1] = α4β1 in Sf9 insect cells, ± SEM of three experiments

Compound	pIC50 (NKAα4)	NKA Isoform Specificity (IC50 M) NKAα4 (NKAα4; [1])	pIC50 (NKAα1)	Sperm viability (mouse sperm)	Reversibility of effect on sperm motility (mouse epididymal sperm)	pIC50 (NKAα4; α4β1 in Sf9 insect cells, ± SEM of three experiments, read-out: NKA Isoform Specificity (IC50 M) NKAα4)
C[C@]12CC[C@H]3[C@@H](CC=C4C[C@@H](O)CC[C@@]43C)[C@@H]1CC[C@@H]2c1cn(Cc2ccccc2)nn1 [Compound 13, (3S,8S,9S,10R,13S,14S,17S)-17-(1-Benzyl-1H-1,2,3-triazol-4-yl)-10,13-dimethyl-2,3,4,7,8,9,10,11,12,13,14,15,16,17-tetradecahydro-1H-cyclopenta[a]phenanthren-3-ol]	10.00	nanomolar range	< 4.00	the same as that of the untreated controls	maintained over time; also recorded: not reversible	–
CC12CCC(=O)C=C1CCCC2n1cc(-c2ccccc2)nn1 (stereo not shown) [Compound 45, 4a-Methyl-5-(4-phenyl-1H-1,2,3-triazol-1-yl)-4,4a,5,6,7,8-hexahydronaphthalen-2(3H)-one]	–	nanomolar range	< 4.00	the same as that of the untreated controls	maintained over time; also recorded: not reversible	8.57
